Tested on: human C3A liver cells
Test: Microarray differential gene expression in human C3A liver cell cultures treated with steroids
Format: cell-based
From the text: Incyte clones represent template sequences derived from the LWESEQ GOLD assembled human sequence database (Incyte Genomics). In cases where more than one clone was available for a particular template, the 5′-most clone in the template was used on the microarray. The HUMAN GENOME GEM series 1-4 microarrays (Incyte Genomics) contain 28,626 array elements which represent 10,068 annotated clusters and 18,558 unannotated clusters. For the UNIGEM series microarrays (Incyte Genomics), Incyte clones were mapped to non-redundant Unigene clusters (Unigene database (build 46), NCBI; Shuler (1997) J Mol Med 75:694-698), and the 5′ clone with the strongest BLAST alignment (at least 90% identity and 100 bp overlap) was chosen, verified, and used in the construction of the microarray. The UNIGEM V microarray (Incyte Genomics) contains 7075 array elements which represent 4610 annotated genes and 2,184 unannotated clusters.
To construct microarrays, cDNAs were amplified from bacterial cells using primers complementary to vector sequences flanking the cDNA insert. […] Amplified cDNAs were then purified using […]-400 columns (APB). Purified cDNAs were immobilized on polymer-coated glass slides. Glass microscope slides (Corning, Corning N.Y.) were cleaned by ultrasound in 0.1% SDS and acetone, with extensive distilled water washes between and after treatments. Glass slides were etched in 4% hydrofluoric acid (VWR Scientific Products, West Chester Pa.), washed thoroughly in distilled water, and coated with 0.05% aminopropyl silane (Sigma Aldrich) in 95% ethanol. Coated slides were cured in a 110° C. oven. cDNAs were applied to the coated glass substrate using a procedure described in U.S. Pat. No. 5,807,522. One microliter of the cDNA at an average concentration of 100 ng/μl was loaded into the open capillary printing element by a high-speed robotic apparatus which then deposited about 5 nl of cDNA per slide.
Microarrays were UV-crosslinked using a […] UV-crosslinker (Stratagene), and then washed at room temperature once in 0.2% SDS and three times in distilled water. Non-specific binding sites were blocked by incubation of microarrays in 0.2% casein in phosphate buffered saline (Tropix, Bedford Mich.) for 30 minutes at 60° C. followed by washes in 0.2% SDS and distilled water as before.
In all cases, mRNA from untreated early confluent C3A cells were prepared in parallel as described below.
Cells were harvested and lysed in 1 ml of TRIZOL reagent (5×10^6 cells/ml; Life Technologies). Lysates were vortexed thoroughly, incubated at room temperature for 2-3 minutes, and extracted with 0.5 ml chloroform. The extract was mixed, incubated at room temperature for 5 minutes, and centrifuged at 15,000 rpm for 15 minutes at 4° C. The aqueous layer was collected, and an equal volume of isopropanol was added. Samples were mixed, incubated at room temperature for 10 minutes, and centrifuged at 15,000 rpm for 20 minutes at 4° C. The supernatant was removed, and the RNA pellet was washed with 1 ml of 70% ethanol, centrifuged at 15,000 rpm at 4° C., and resuspended in RNAse-free water. The concentration of the RNA was determined by measuring the optical density at 260 nm.
Poly(A) RNA was prepared using an OLIGOTEX mRNA kit (Qiagen) with the following modifications: OLIGOTEX beads were washed in tubes instead of on spin columns, resuspended in elution buffer, and then loaded onto spin columns to recover mRNA. To obtain maximum yield, the mRNA was eluted twice.
Each poly(A) RNA sample was reverse transcribed using MMLV reverse-transcriptase, 0.05 pg/μl oligo-d(T) primer (21mer), 1× first strand buffer, 0.03 units/ul RNAse inhibitor, 500 uM dATP, 500 uM dGTP, 500 uM dTTP, 40 uM dCTP, and 40 uM either dCTP-Cy3 or dCTP-Cy5 (APB).

`C[C@H]1C[C@H]2[C@@H]3CCC4=CC(=O)C=C[C@]4(C)[C@@]3(Cl)[C@@H](O)C[C@]2(C)[C@@]1(O)C(=O)CO` [beclomethasane] was tested, and the “Ave DE [log2] (C3A treated with steroid)” value (Clone ID 5398701) was 0.82 log2.

For `C[C@@H]1C[C@H]2[C@@H]3CCC4=CC(=O)C=C[C@]4(C)[C@@]3(F)[C@@H](O)C[C@]2(C)[C@@]1(O)C(=O)CO` [dexamethasone], the “Ave DE [log2] (C3A treated with steroid)” value (Clone ID 167081) was −1.10 log2, the “Ave DE [log2] (C3A treated with steroid)” value (Clone ID 220378) was 0.39 log2 and the “Ave DE [log2] (C3A treated with steroid)” value (Clone ID 380006) was −0.98 log2. For the same compound, the “Ave DE [log2] (C3A treated with steroid)” value (Clone ID 419492) was 1.08 log2, the “Ave DE [log2] (C3A treated with steroid)” value (Clone ID 494905) was 0.75 log2 and the “Ave DE [log2] (C3A treated with steroid)” value (Clone ID 508943) was −1.26 log2. For the same compound, the “Ave DE [log2] (C3A treated with steroid)” value (Clone ID 869702) was 0.55 log2, the “Ave DE [log2] (C3A treated with steroid)” value (Clone ID 1259841) was 0.84 log2 and the “Ave DE [log2] (C3A treated with steroid)” value (Clone ID 1275616) was 0.97 log2. The “Ave DE [log2] (C3A treated with steroid)” value (Clone ID 1323616) was 0.89 log2, the “Ave DE [log2] (C3A treated with steroid)” value (Clone ID 1500810) was −0.70 log2 and the “Ave DE [log2] (C3A treated with steroid)” value (Clone ID 1501410) was −1.16 log2. For the same compound, the “Ave DE [log2] (C3A treated with steroid)” value (Clone ID 1573840) was 0.86 log2, the “Ave DE [log2] (C3A treated with steroid)” value (Clone ID 1823946) was −1.20 log2 and the “Ave DE [log2] (C3A treated with steroid)” value (Clone ID 1857664) was −0.71 log2. The “Ave DE [log2] (C3A treated with steroid)” value (Clone ID 1876829) was −0.94 log2, the “Ave DE [log2] (C3A treated with steroid)” value (Clone ID 1930847) was −0.67 log2 and the “Ave DE [log2] (C3A treated with steroid)” value (Clone ID 1946155) was 0.93 log2. For the same compound, the “Ave DE [log2] (C3A treated with steroid)” value (Clone ID 2025128) was 0.90 log2, the “Ave DE [log2] (C3A treated with steroid)” value (Clone ID 2086783) was −1.18 log2 and the “Ave DE [log2] (C3A treated with steroid)” value (Clone ID 2088104) was −1.20 log2. For the same compound, the “Ave DE [log2] (C3A treated with steroid)” value (Clone ID 2095329) was −1.37 log2, the “Ave DE [log2] (C3A treated with steroid)” value (Clone ID 2173002) was 0.75 log2 and the “Ave DE [log2] (C3A treated with steroid)” value (Clone ID 2253102) was −1.20 log2. For the same compound, the “Ave DE [log2] (C3A treated with steroid)” value (Clone ID 2269058) was −1.15 log2, the “Ave DE [log2] (C3A treated with steroid)” value (Clone ID 2285181) was −1.27 log2 and the “Ave DE [log2] (C3A treated with steroid)” value (Clone ID 2285521) was −1.22 log2. For the same compound, the “Ave DE [log2] (C3A treated with steroid)” value (Clone ID 2287703) was −1.24 log2, the “Ave DE [log2] (C3A treated with steroid)” value (Clone ID 2287724) was −1.16 log2 and the “Ave DE [log2] (C3A treated with steroid)” value (Clone ID 2293496) was −0.82 log2. The “Ave DE [log2] (C3A treated with steroid)” value (Clone ID 2294968) was −0.94 log2, the “Ave DE [log2] (C3A treated with steroid)” value (Clone ID 2655279) was −1.21 log2 and the “Ave DE [log2] (C3A treated with steroid)” value (Clone ID 2698777) was −1.48 log2. The “Ave DE [log2] (C3A treated with steroid)” value (Clone ID 2703282) was −0.86 log2, the “Ave DE [log2] (C3A treated with steroid)” value (Clone ID 2947188) was −0.98 log2 and the “Ave DE [log2] (C3A treated with steroid)” value (Clone ID 3057272) was 0.98 log2. The “Ave DE [log2] (C3A treated with steroid)” value (Clone ID 3115505) was −1.10 log2, the “Ave DE [log2] (C3A treated with steroid)” value (Clone ID 3139631) was −0.82 log2 and the “Ave DE [log2] (C3A treated with steroid)” value (Clone ID 3973887) was −1.06 log2. For the same compound, the “Ave DE [log2] (C3A treated with steroid)” value (Clone ID 4089291) was −0.77 log2, the “Ave DE [log2] (C3A treated with steroid)” value (Clone ID 4284270) was −0.88 log2 and the “Ave DE [log2] (C3A treated with steroid)” value (Clone ID 4377432) was 0.87 log2. The “Ave DE [log2] (C3A treated with steroid)” value (Clone ID 4884214) was −0.77 log2, the “Ave DE [log2] (C3A treated with steroid)” value (Clone ID 5091002) was −1.42 log2 and the “Ave DE [log2] (C3A treated with steroid)” value (Clone ID 5206821) was 0.17 log2. The “Ave DE [log2] (C3A treated with steroid)” value (Clone ID 5426158) was −1.03 log2.

For `C#C[C@]1(O)CC[C@H]2[C@@H]3CCC4=Cc5oncc5C[C@]4(C)[C@H]3CC[C@@]21C` [donozol], the “Ave DE [log2] (C3A treated with steroid)” value (Clone ID 2407620) was −0.26 log2 and the “Ave DE [log2] (C3A treated with steroid)” value (Clone ID 3474091) was −0.29 log2.

`C[C@]12C=CC(=O)C=C1CC[C@@H]1[C@@H]2C(=O)C[C@@]2(C)[C@H]1CC[C@]2(O)C(=O)CO` [prednisone] was tested, and the “Ave DE [log2] (C3A treated with steroid)” value (Clone ID 998615) was 0.91 log2, the “Ave DE [log2] (C3A treated with steroid)” value (Clone ID 1329625) was 0.42 log2 and the “Ave DE [log2] (C3A treated with steroid)” value (Clone ID 1401312) was −0.82 log2. For the same compound, the “Ave DE [log2] (C3A treated with steroid)” value (Clone ID 1496011) was 0.51 log2, the “Ave DE [log2] (C3A treated with steroid)” value (Clone ID 1611629) was 0.94 log2 and the “Ave DE [log2] (C3A treated with steroid)” value (Clone ID 1679595) was 0.99 log2. The “Ave DE [log2] (C3A treated with steroid)” value (Clone ID 1716458) was 1.03 log2, the “Ave DE [log2] (C3A treated with steroid)” value (Clone ID 1740179) was 0.86 log2 and the “Ave DE [log2] (C3A treated with steroid)” value (Clone ID 1946155) was 0.92 log2. The “Ave DE [log2] (C3A treated with steroid)” value (Clone ID 1951845) was 0.79 log2, the “Ave DE [log2] (C3A treated with steroid)” value (Clone ID 2086783) was −1.13 log2 and the “Ave DE [log2] (C3A treated with steroid)” value (Clone ID 2088104) was −1.15 log2. For the same compound, the “Ave DE [log2] (C3A treated with steroid)” value (Clone ID 2095329) was −1.21 log2, the “Ave DE [log2] (C3A treated with steroid)” value (Clone ID 2227273) was 1.01 log2 and the “Ave DE [log2] (C3A treated with steroid)” value (Clone ID 2252884) was −1.03 log2. The “Ave DE [log2] (C3A treated with steroid)” value (Clone ID 2253102) was −1.13 log2, the “Ave DE [log2] (C3A treated with steroid)” value (Clone ID 2269058) was −1.06 log2 and the “Ave DE [log2] (C3A treated with steroid)” value (Clone ID 2285521) was −1.09 log2. The “Ave DE [log2] (C3A treated with steroid)” value (Clone ID 2287703) was −1.07 log2, the “Ave DE [log2] (C3A treated with steroid)” value (Clone ID 2430165) was 0.23 log2 and the “Ave DE [log2] (C3A treated with steroid)” value (Clone ID 2607834) was 0.29 log2. For the same compound, the “Ave DE [log2] (C3A treated with steroid)” value (Clone ID 2698777) was −1.25 log2, the “Ave DE [log2] (C3A treated with steroid)” value (Clone ID 2734007) was 0.88 log2 and the “Ave DE [log2] (C3A treated with steroid)” value (Clone ID 2908212) was 0.42 log2. The “Ave DE [log2] (C3A treated with steroid)” value (Clone ID 3960194) was 1.01 log2, the “Ave DE [log2] (C3A treated with steroid)” value (Clone ID 4252872) was 0.77 log2 and the “Ave DE [log2] (C3A treated with steroid)” value (Clone ID 4543123) was 1.27 log2. The “Ave DE [log2] (C3A treated with steroid)” value (Clone ID 4630674) was 0.86 log2, the “Ave DE [log2] (C3A treated with steroid)” value (Clone ID 4894508) was −1.03 log2 and the “Ave DE [log2] (C3A treated with steroid)” value (Clone ID 5102951) was 0.85 log2. The “Ave DE [log2] (C3A treated with steroid)” value (Clone ID 5326983) was 0.50 log2 and the “Ave DE [log2] (C3A treated with steroid)” value (Clone ID 5543385) was 1.00 log2.

Reference: US6673549B1, “Genes expressed in C3A liver cell cultures treated with steroids” (Incyte Corporation, priority 2000, dated 2004)
